Experimental data published in patent US11286233B2, “Stilbene derivatives for the treatment of CNS and other disorders” (AMBIENT PHOTONICS, INC., priority 2017, dated 2022).

Key:
[1] = biological target: T1, Aβ1-42:Zn (Homo sapiens, UniProt P05067); assay: Fluorescence-based (bis-ANS) assay of Aβ1-42:Zn disaggregation; type: biochemical; settings: Aβ1-42 15 μM, bis-ANS 15 μM, Zn 15 μM; Tris-HCl pH7.4, 26° C.; test compounds 0.227-60 μM added after plateau, read over 20 minutes; concentration reducing fluorescence by 50 percent
T1 construct: Human peptides Aβ1-42 and Amylin 8-37 were purchased; purchased China Peptide
Protocol: Human peptides Aβ1-42 and Amylin 8-37 were purchased from China Peptide and stored at −80° C. […] The device was configured to maintain 26° C., measure an excitation of 390 nm, emission of 490 nm and cutoff 475 nm with the PMT+set at Medium, 6 flashes/read at 40 second intervals with shaking 5 seconds before the first read and 3 seconds between reads. Experiments were conducted at 26° C. in a Tris-HCl buffer (50 mM, pH7.4) containing NaCl (150 mM). Aβ1-42 was solubilized in DMSO to a concentration of 1.5 mM for 5 minutes then briefly centrifuged to remove any aggregates. The soluble Aβ1-42 (15 μM) was immediately mixed ±bis-ANS (15 μM) and allowed to equilibrate for 5 minutes. Aβ aggregation was induced with the addition of ±Zn (15 μM) in H2O. […] Test compounds (0.227-60 μM in DMSO) were then added and the dose response was measured over a 20-minute period. EDTA, known to chelate Zn, was used as a positive control. Raw fluorescence was normalized to background fluorescence without Aβ and expressed as a percentage of that in control samples without Zn. All quantitative data was expressed as mean±SEM from at least 3 replicates. All statistical analysis was conducted with Prism 6 (GraphPad).

[2] = biological target: T2, Amylin 8-37 (Homo sapiens, UniProt P10997); assay: Fluorescence-based (bis-ANS) assay of Amylin disaggregation; type: biochemical; settings: Amylin 8-37 15 μM, bis-ANS 15 μM; Tris-HCl pH7.4, 26° C.; aggregation 24 hours, test compounds 0.227-60 μM, read over 24 hour period; concentration reducing fluorescence by 50 percent
T2 construct: Amylin 8-37 peptide was solubilized in DMSO; purchased China Peptide
T2 sequence (P10997 41-70): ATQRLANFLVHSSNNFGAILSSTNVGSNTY
Protocol: Human peptides Aβ1-42 and Amylin 8-37 were purchased from China Peptide and stored at −80° C. Zinc sulfate heptahydrate (ZnSO4.7H2O), BisANS (4,4′-Dianilino-1,1′-binaphthyl-5,5′-disulfonic acid dipotassium salt), Epigallocatechin-3-gallate (EGCG), 9-(Dicyanovinyl)julolidine (DCVJ) and Clioquinol (CQ) were purchased from Sigma Aldrich. Ethylenediaminetetraacetic acid (EDTA) was purchased from Alfa Aesar. 2-(dimethylamino)methyl-5,7-dichloro-8-hydroxyquinoline (AC-068), structurally similar to PBT-2 was synthesized by Warner Babcock Institute for Green Chemistry, LLC.
Amylin disaggregation was assessed using a Spectramax M5 multi-mode microplate reader (Molecular Devices) using untreated black with clear bottom 96 well plates (Costar #3631). The device was configured to maintain 26° C., measure an excitation of 390 nm, emission of 490 nm and cutoff 475 nm with the PMT+set at Medium, 6 flashes/read at 5-minute intervals with shaking 5 seconds before the first read and 3 seconds between reads.
Experiments were conducted at 26° C. in a Tris-HCl buffer (50 mM, pH7.4) containing NaCl (150 mM). Amylin 8-37 peptide was solubilized in DMSO to a concentration of 1.5 mM for 5 minutes then briefly centrifuged to remove any aggregates. The soluble amylin peptide (15 μM) was immediately mixed ±bis-ANS (15 μM) and the plate sealed to prevent evaporation. Aggregation was measured by an increase in fluorescence over 24 hours. Test compounds (0.227-60 μM in DMSO) were then added and the dose response was measured over a 24 hour period. EGCG was used as a positive control. Raw fluorescence was normalized to background fluorescence without Amylin and expressed as a percentage of that in control samples. All quantitative data was expressed as mean±SEM from at least 3 replicates. All statistical analysis was conducted with Prism 6 (GraphPad). Nonlinear regression was used to calculate the concentration at which fluorescence was reduced by 50 percent (EC50), as shown in Table 2.

T1 sequence (P05067 672-713): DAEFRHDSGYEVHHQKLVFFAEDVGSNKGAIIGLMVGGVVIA

Row | Compound | EC50 [1] | EC50 [2]
1 | N#CC(=Cc1ccc(/C=C/c2ccc(N(c3ccccc3)c3ccccc3)cc2)cc1)C(=O)O (stereo in doubt) [PC-064, (Z)-2-cyano-3-[4-[(E)-2-[4-(N-phenylanilino)phenyl]vinyl]phenyl]prop-2-enoic Acid] | 747 nM | 24 nM
2 | COc1cc(/C=C(\C#N)C(=O)O)c(OC)cc1/C=C/c1ccc(-n2c3ccc(C(C)(C)C)cc3c3cc(C(C)(C)C)ccc32)cc1 [PC-066, (E)-2-cyano-3-[4-[(E)-2-[4-(3,6-ditert-butylcarbazol-9-yl)phenyl]vinyl]-2,5-dimethoxy-phenyl]prop-2-enoic Acid] | – | 1190 nM
3 | N#C/C(=C/c1ccc(/C=C/c2ccc(N(c3ccccc3)c3ccccc3)cc2)cc1OCC(=O)O)C(=O)O [PC-190, (Z)-3-[2-(carboxymethoxy)-4-[(E)-2-[4-(N-phenylanilino)phenyl]vinyl]phenyl]-2-cyano-prop-2-enoic Acid] | 649 nM | –
4 | N#C/C(=C/c1ccc(/C=C/c2ccc(N(c3ccccc3)c3ccccc3)cc2)cc1OCCCCCCCCCC(=O)O)C(=O)O [PC-192] | 2850 nM | –
5 | COc1cc(/C=C/c2ccc(N(c3ccc(C(C)(C)C)cc3)c3ccc(C(C)(C)C)cc3)cc2)c(OC)cc1C=C(C#N)C(=O)O (stereo in doubt) [PC-063, (Z)-3-[4-[(E)-2-[4-(4-tert-butyl-N-(4-tert-butylphenyl)anilino)phenyl]vinyl]-2,5-dimethoxy-phenyl]-2-cyano-prop-2-enoic Acid] | 31000 nM | 1260 nM
6 | CN(C)Cc1ccc2c(Cl)cc(Cl)c(O)c2n1 [AC-068(PBT2), 2-(dimethylamino)methyl-5,7-dichloro-8-hydroxyquinoline, reference compound] | 2210 nM | –
7 | Oc1c(I)cc(Cl)c2cccnc12 [CQ, Clioquinol, reference compound] | 2690 nM | 4070 nM
8 | O=C(O)CN(CCN(CC(=O)O)CC(=O)O)CC(=O)O [EDTA, Ethylenediaminetetraacetic acid, reference compound] | 46100 nM | –
9 | N#CC(C#N)=Cc1cc2c3c(c1)CCCN3CCC2 [DCVJ, 9-(Dicyanovinyl)julolidine, reference compound] | 533 nM | –
10 | N#C/C(=C/c1ccc(/C=C/c2ccc(N(c3ccccc3)c3ccccc3)cc2)cc1OCCCCCCCC(=O)O)C(=O)O [PC-191] | 1610 nM | –
11 | CC(C)(C)c1ccc(N(c2ccc(/C=C/c3ccc4cc(C#N)c(=O)[nH]c4c3)cc2)c2ccc(C(C)(C)C)cc2)cc1 [PC-174, 7-[(E)-2-[4-(4-tert-butyl-N-(4-tert-butylphenyl)anilino)phenyl]vinyl]-2-oxo-1H-quinoline-3-carbonitrile] | 49700 nM | 3740 nM
12 | N#C/C(=C/c1ccc(-c2ccc(N(c3ccccc3)c3ccccc3)cc2)o1)C(=O)O [PC-081, (Z)-2-cyano-3-[5-[4-(N-phenylanilino)phenyl]-2-furyl]prop-2-enoic Acid] | 338 nM | 207 nM
13 | Epigallocatechin-3-gallate [EGCG, reference compound] | – | 857 nM
